molecular target: PASK (Homo sapiens (Human), UniProt Q96RG2); assay: PAS Kinase FRET Assay; format: biochemical; conditions: TR-FRET assay; read-out: IC50 Kinase Domain
Description: The aim of the FRET assay is to determine the inhibition potential of test compounds on targeted kinase. This assay platform provides a homogenous screening method for measuring kinase activity by quantitating the amount of phospho-substrate in solution following a kinase reaction.
In the presence of kinase and ATP, the Ulight-peptide is phosphorylated and captured by an anti-phospho-substrate antibody, which brings the Eu chelate donor and Ulight acceptor dyes into close proximity. Upon excitation at 340 nm, the Eu chelate transfers its energy to the Ulight dye, resulting in a fluorescent light emission at 665 nm
Titration of kinase at 1 mM ATP was achieved via the following protocol. After making serial three-fold dilutions of PASK (Invitrogen) in reaction buffer across the plate; 5 μl of kinase dilution and 5 μl substrate/ATP mix were added to the wells of the white Optiplate-384 (PerkinElmer). The contents of the plate were and incubated at RT for 1 h. The reaction was stopped by adding 5 μl of stop solution to each test well followed by mixing and incubation at RT for 10 minutes. 5 μl of detection mix (detection antibody diluted in detection buffer) was added; the contents of the plate were mixed and then incubated in the dark for 1 hour at RT. The signal was recorded at TR-FRET mode (665 nm/615 nm). The results were graphed to calculate the EC50.
Titration of ATP at the EC50 concentration of kinase to determine ATP Km, app. was performed using the following method. After making serial dilutions of ATP (Invitrogen), 5 μl of ATP dilution and 5 μl substrate/kinase mix were added to the wells of the white Optiplate-384 (PerkinElmer). The contents of the plate were and incubated at RT for 1 h. The reaction was stopped by adding 5 μl of stop solution to each test well followed by mixing and incubation at RT for 10 minutes. 5 μl of detection mix (detection antibody diluted in detection buffer) was added; the contents of the plate were mixed and then incubated in the dark for 1 hour at RT. The signal was recorded at TR-FRET mode (665 nm/615 nm). The results were graphed to calculate the EC50 as the ATP Km, app.
Compound screening was done via the following method. 10 mM stock solution of test compound in DMSO was prepared by dissolving test compound in DMSO at RT for 1 hour, and then sonicating at 100% output for 8 minutes. If compound is not soluble under this condition, it was diluted to 3 mM. Kinase reaction buffer was prepared containing 10 mM MgCl2, 50 mM HEPES, 1 mM EGTA, 0.01% TWEEN-20, 2 mM DTT. Serial dilutions of the test compounds were prepared at 4×final assay concentrations using Freedom EVO200® dispensing system as follows: 12×10^−5 M, 4×10^−5 M, 1.33×10^−5 M, 4.44×10^−6 M, 1.48×10^−6 M, 4.92×10^−7 M, 1.65×10^−7 M, […], 1.82×10^−8M, 6.09×10^−9, 2.03×10^−9 M. Test compounds (2.5 μl at 4× the final assay concentration) was added to wells using Freedom EVO200® dispensing system. As a positive control, 2.5 μl of positive compound was added to assay wells, and 2.5 μl of DMSO to assay wells as vehicle control. Kinase solution was prepared in reaction buffer at 2×final assay concentration. Kinase solution (5 μl) was added to each well of the assay plate. The substrate and ATP solution was prepared in kinase reaction buffer at 4×final assay concentration. The kinase reaction was started by adding 2.5 μl of substrate+ATP mix solution to each well of the assay plate. The plate is mixed on a plate shaker; then covered and allowed to react for 2 hours in the dark at 25° C. without shaking. The reaction was stopped by adding 5 μl of stop solution to each test well followed by mixing and incubation at RT for 10 minutes in the dark. 5 μl of detection mix (detection antibody diluted in detection buffer) was added; the contents of the plate were mixed and then incubated in the dark for 1 hour at RT. The signal was recorded at TR-FRET mode (665 nm/615 nm).

Chain of PASK (Q96RG2 999-1251): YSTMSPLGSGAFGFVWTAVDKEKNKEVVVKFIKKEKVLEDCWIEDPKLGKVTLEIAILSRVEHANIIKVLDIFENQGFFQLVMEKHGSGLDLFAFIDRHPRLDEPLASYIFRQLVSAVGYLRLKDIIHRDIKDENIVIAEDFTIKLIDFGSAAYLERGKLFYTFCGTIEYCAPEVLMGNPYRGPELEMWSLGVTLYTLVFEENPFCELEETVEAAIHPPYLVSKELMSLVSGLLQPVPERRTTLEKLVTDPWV

IC50, ≤ 10 µM:
Cc1cc2cc(-c3cc(=O)n4ncc(-c5ccccn5)c4[nH]3)ccc2o1 [Example 169, 5-(2-Methylbenzofuran-5-yl)-3-(pyridin-2-yl)pyrazolo[1,5-a]pyrimidin-7(4H)-one]
Cc1cc2cc(-c3cc(=O)n4nc(N)c(-c5ccccn5)c4[nH]3)ccc2o1 [Example 170, 2-Amino-5-(2-methylbenzofuran-5-yl)-3-(pyridin-2-yl)pyrazolo[1,5-a]pyrimidin-7(4H)-one]
Nc1nn2c(=O)cc(-c3ccc(C(F)(F)F)cc3)[nH]c2c1-c1ccccn1 [Example 172, 2-amino-3-(pyridin-2-yl)-5-(4-(trifluoromethyl)phenyl)pyrazolo[1,5-a]pyrimidin-7(411)-one]
O=c1cc(-c2ccc(C(F)(F)F)cc2)[nH]c2c(-c3ccccn3)cnn12 [Example 173, 3-(Pyridin-2-yl)-5-(4-(trifluoromethyl)phenyl)pyrazolo[1,5-a]pyrimidin-7(4H)-one]
Nc1nn2c(=O)cc(-c3cccc(F)c3)[nH]c2c1-c1ccccn1 [Example 174, 2-Amino-5-(3-fluorophenyl)-3-(pyridin-2-yl)pyrazolo[1,5-a]pyrimidin-7(4H)-one]
O=c1cc(-c2cccc(F)c2)[nH]c2c(-c3ccccn3)cnn12 [Example 175, 5-(3-Fluorophenyl)-3-(pyridin-2-yl)pyrazolo[1,5-a]pyrimidin-7(4H)-one]
Nc1nn2c(=O)cc(-c3ccc(F)cc3F)[nH]c2c1-c1ccccn1 [Example 176, 2-Amino-5-(2,4-difluorophenyl)-3-(pyridin-2-yl)pyrazolo[1,5-a]pyrimidin-7(4H)-one]
O=c1cc(-c2ccc(F)cc2F)[nH]c2c(-c3ccccn3)cnn12 [Example 177, 5-(2,4-Difluorophenyl)-3-(pyridin-2-yl)pyrazolo[1,5-a]pyrimidin-7(4H)-one]
CCCNC(=O)c1c(N)nn2c(=O)cc(-c3ccc4c(c3)OCO4)[nH]c12 [Example 178, 2-Amino-5-(benzo[d][1,3]dioxol-5-yl)-7-oxo-N-propyl-4,7-dihydropyrazolo[1,5-a]pyrimidine-3-carboxamide]
CCC(=O)Nc1nn2c(=O)cc(-c3ccc4c(c3)OCO4)[nH]c2c1-c1ccccn1 [Example 180, N-(5-(Benzo[d][1,3]dioxol-5-yl)-7-oxo-3-(pyridin-2-yl)-4,7-dihydropyrazolo[1,5-a]pyrimidin-2-yl)propionamide]
CC(C)C(=O)Nc1nn2c(=O)cc(-c3ccc4c(c3)OCO4)[nH]c2c1-c1ccccn1 [Example 181, N-(5-(Benzo[d][1,3]dioxol-5-yl)-7-oxo-3-(pyridin-2-yl)-4,7-dihydropyrazolo[1,5-a]pyrimidin-2-yl)isobutyramide]
CC(=O)Nc1nn2c(=O)cc(-c3ccc4[nH]ncc4c3)[nH]c2c1-c1ccccn1 [Example 182, N-(5-(1H-Indazol-5-yl)-7-oxo-3-(pyridin-2-yl)-4,7-dihydropyrazolo[1,5-a]pyrimidin-2-yl)acetamide]
CCc1nn2c(=O)cc(-c3ccc4[nH]ncc4c3)[nH]c2c1-c1ccccn1 [Example 183, 2-Ethyl-5-(1H-indazol-5-yl)-3-(pyridin-2-yl)pyrazolo[1,5-a]pyrimidin-7(4H)-one]
Cn1ncc2cc(-c3cc(=O)n4nc(N)c(-c5ccccn5)c4[nH]3)ccc21 [Example 184, 2-Amino-5-(1-methyl-1H-indazol-5-yl)-3-(pyridin-2-yl)pyrazolo[1,5-a]pyrimidin-7(4H)-one]
Cc1nn2c(=O)cc(-c3ccc4[nH]nnc4c3)[nH]c2c1Cc1ccccc1 [Example 185, 5-(1H-Benzo[d][1,2,3]triazol-5-yl)-3-benzyl-2-methylpyrazolo[1,5-a]pyrimidin-7(4H)-one]
Cn1ncc2cc(-c3cc(=O)n4ncc(-c5ccccn5)c4[nH]3)ccc21 [Example 186, 5-(1-Methyl-1H-indazol-5-yl)-3-(pyridin-2-yl)pyrazolo[1,5-a]pyrimidin-7(4H)-one]
O=c1cc(-c2ccc3[nH]ncc3c2)[nH]c2c(-c3ccccn3)c(O)nn12 [Example 187, 2-Hydroxy-5-(1H-indazol-5-yl)-3-(pyridin-2-yl)pyrazolo[1,5-a]pyrimidin-7(4H)-one]
Cc1n[nH]c2ccc(-c3cc(=O)n4nc(N)c(-c5ccccn5)c4[nH]3)cc12 [Example 188, 2-Amino-5-(3-methyl-1H-indazol-5-yl)-3-(pyridin-2-yl)pyrazolo[1,5-a]pyrimidin-7(4H)-one]
Cc1n[nH]c2ccc(-c3cc(=O)n4ncc(-c5ccccn5)c4[nH]3)cc12 [Example 189, 5-(3-Methyl-1H-indazol-5-yl)-3-(pyridin-2-yl)pyrazolo[1,5-a]pyrimidin-7(4H)-one]
CCc1nn2c(=O)cc(-c3ccc(Cl)cc3)[nH]c2c1-c1ccccn1 [Example 190, 5-(4-Chlorophenyl)-2-ethyl-3-(pyridin-2-yl)pyrazolo[1,5-a]pyrimidin-7(4H)-one]
O=c1cc(-c2ccc3[nH]nnc3c2)[nH]c2c(-c3ccccn3)cnn12 [Example 192, 5-(1H-Benzo[d][1,2,3]triazol-5-yl)-3-(pyridin-2-yl)pyrazolo[1,5-a]pyrimidin-7(4H)-one]
Cn1nnc2cc(-c3cc(=O)n4nc(N)c(-c5ccccn5)c4[nH]3)ccc21 [Example 194, 2-Amino-5-(1-methyl-1H-benzo[d][1,2,3]triazol-5-yl)-3-(pyridin-2-yl)pyrazolo[1,5-a]pyrimidin-7(4H)-one]
Cn1nnc2cc(-c3cc(=O)n4ncc(-c5ccccn5)c4[nH]3)ccc21 [Example 195, 5-(1-Methyl-1H-benzo[d][1,2,3]triazol-5-yl)-3-(pyridin-2-yl)pyrazolo[1,5-a]pyrimidin-7(4H)-one]
CCc1nn2c(=O)cc(-c3ccc4c(cnn4C)c3)[nH]c2c1-c1ccccn1 [Example 196, 2-Ethyl-5-(1-methyl-1H-indazol-5-yl)-3-(pyridin-2-yl)pyrazolo[1,5-a]pyrimidin-7(4H)-one]
Cc1nn2c(=O)cc(-c3ccc4[nH]nnc4c3)[nH]c2c1-c1ccccn1 [Example 200, 5-(1H-Benzo[d][1,2,3]triazol-5-yl)-2-methyl-3-(pyridin-2-yl)pyrazolo[1,5-a]pyrimidin-7(4H)-one]
CC(=O)Nc1nn2c(=O)cc(-c3ccc4[nH]nnc4c3)[nH]c2c1-c1ccccn1 [Example 202, N-(5-(1H-Benzo[d][1,2,3]triazol-5-yl)-7-oxo-3-(pyridin-2-yl)-4,7-dihydropyrazolo[1,5-a]pyrimidin-2-yl)acetamide]
CCC(=O)Nc1nn2c(=O)cc(-c3ccc4nn[nH]c4c3)[nH]c2c1-c1ccccn1 [Example 203, N-(5-(1H-Benzo[d][1,2,3]triazol-6-yl)-7-oxo-3-(pyridin-2-yl)-4,7-dihydropyrazolo[1,5-a]pyrimidin-2-yl)propionamide]
CCn1ncc2cc(-c3cc(=O)n4nc(NC(C)=O)c(-c5ccccn5)c4[nH]3)ccc21 [Example 204, N-(5-(1-Ethyl-1H-indazol-5-yl)-7-oxo-3-(pyridin-2-yl)-4,7-dihydropyrazolo[1,5-a]pyrimidin-2-yl)acetamide]

Reference: patent US10953012B2, “Heterocyclic compounds for the inhibition of pask” (BioEnergenix LLC, priority 2011, dated 2021)
